Where two headings read alike, the source gives them in different places.
Experiments:
Botrytis cinerea = test: Activity against the gray mold pathogen Botrytis cinerea in the microtiter test; type: cell-based; details: day 7 after inoculation, absorption 405 nm
Phytophthora infestans = type: cell-based; details: day 7 after inoculation, absorption 405 nm
Puccinia recondita = test: Protective activity against Puccinia recondita on wheat (brown rust of wheat), greenhouse; type: in vivo, Puccinia recondita on wheat seedlings cultivar Kanzler; details: sprayed 5 days before inoculation, visual rating

Row | SMILES | Observed efficacy (%) (Botrytis cinerea; 1 ppm single active compound) | Observed efficacy (%) (Botrytis cinerea; 4 ppm single active compound) | Observed efficacy (%) (Phytophthora infestans; 2 ppm single active compound) | Observed efficacy (%) (Phytophthora infestans; 4 ppm single active compound) | Observed efficacy (%) (Puccinia recondita; 16 ppm single active compound) | Observed efficacy (%) (Puccinia recondita; 63 ppm single active compound) | Observed efficacy (%) (Puccinia recondita; 4 ppm single active compound)
1 | Cc1ccc(-c2c(Cl)nc(C#N)n2S(=O)(=O)N(C)C)cc1 [cyazofamid (II-30), 4-chloro-2-cyano-N,N-dimethyl-5-(4-methylphenyl)-1H-imidazole-1-sulfon-amide] | 0 | 0 |  |  |  |  | 
2 | CO/C=C(/C(=O)OC)c1ccccc1CO/N=C(C)/C=C/c1ccc(Cl)cc1 [enestroburin (I), methyl 2-{2-[3-(4-chlorophenyl)-1-methylallylideneaminooxymethyl]phenyl}-3-methoxyacrylate] |  | 48 | 70 | 82 | 22 | 44 | 
3 | OC(Cc1ccccc1Cl)(Cn1nc[nH]c1=S)C1(Cl)CC1 (centres unmarked) [prothioconazole (II-19), 2-[2-(1-chlorocyclopropyl)-3-(2-chlorophenyl)-2-hydroxypropyl]-2,4-dihydro[1,2,4]triazol-3-thione] |  |  |  |  |  |  | 0
